{"source": "patent US6913695B2", "about": "“Sanitization of chromatographic media” (Bayer HealthCare LLC, priority 2003, dated 2005)", "key": {"[1]": {"test_system": "PrP^Sc", "details": "pH 3"}, "[2]": {"test_system": "porcine parvovirus (PPV)", "assay": "Inactivation of PPV in solution by test solutions (TCID50 titration)", "type": "cell-based"}, "[3]": {"test_system": "porcine parvovirus; PPV", "assay": "Porcine parvovirus clearance and sanitization across the benzamidine-SEPHAROSE column (TCID50 titration on MPK cells)", "type": "cell-based"}, "[4]": {"test_system": "bovine viral diarrhea virus (BVDV)", "assay": "Column sanitization after viral clearance run, BVDV", "type": "cell-based", "details": "column treated with 7.2 M guanidine hydrochloride, pH 3.0, after a viral clearance run", "description": "Solutions tested included a variety of alcohols, detergents, and chaotropic agents including guanidine hydrochloride (Table 2). […] A series of experiments were performed to identify conditions under which 8 M guanidine hydrochloride would stay in solution. […] Additionally, when mixed with virus (1 part virus:9 parts acidic guanidine hydrochloride; final guanidine hydrochloride concentration=7.2 M) inactivation to the limit of detection occurred within 30 minutes at 4° C. Similar experiments were carried out treating the benzamidine-SEPHAROSE column with 7.2 M guanidine hydrochloride, pH 3.0, following a viral clearance evaluation run."}}, "note": "Counter-ions that a name gives are not always drawn."}
{"smiles": "N=C(N)N", "note": "[guanidine hydrochloride]", "values": [{"measurement": "decrease in PrP^RES immunoreactivity, as compared to the non-treated control", "setting": "[1]", "result": "≥ 2.5", "unit": "log"}, {"measurement": "precipitation", "setting": "8 M guanidine acidified to pH 4.0 or 3.0, 4° C.", "result": "did not precipitate"}, {"measurement": "precipitation at the lower temperature", "setting": "8 M guanidine, not acidified, 4° C.", "result": "precipitation occurred"}, {"measurement": "time to inactivation to the limit of detection", "setting": "[2]; 1 part virus:9 parts acidic guanidine hydrochloride, final concentration 7.2 M, 4° C.", "result": "≤ 30", "unit": "min"}, {"measurement": "inactivation of virus in solution", "setting": "[2]; 4 M guanidine hydrochloride, pH 3.0", "result": "effective viral inactivation"}, {"measurement": "inactivation of virus in solution", "setting": "[2]; 6.5 M guanidine hydrochloride, pH 4.0, 4° C.", "result": "inactivation of virus"}, {"measurement": "killing of virus (PPV)", "setting": "[2]; 8 M guanidine hydrochloride, room temperature, initial screen", "result": "effective at killing virus to the detection limit of the assay"}, {"measurement": "inactivation of chromatographic column-associated virus (benzamidine-SEPHAROSE resin)", "setting": "[3]; 7.2 M guanidine hydrochloride, pH 3.0", "result": "can be inactivated"}, {"measurement": "virus inactivation on the benzamidine-SEPHAROSE column", "setting": "[3]; PPV, column treated with 7.2 M guanidine hydrochloride, pH 3.0, after a viral clearance run", "result": "inactivation to the limit of assay detection"}, {"measurement": "virus inactivation on the benzamidine-SEPHAROSE column", "setting": "[4]", "result": "inactivation to the limit of assay detection"}]}
